From paper PMC6409085, “Three odorant-binding proteins are involved in the behavioral response of Sogatella furcifera to rice plant volatiles” (PeerJ, 2019)
Where “and” joins values, the source holds several entries; their conditions need not be identical. Equal entries are not always repeated.

Columns and labels:
SfurOBP2 = SfurOBP2 (Sogatella furcifera, UniProt V5T759); experiment: biochemical; format: binding
In short: (§1)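 Protein 2.0 µM + 1-NPN 2.0 µM, 50 mM Tris-HCl pH 7.4; competitor odorants 2, 4 … 20 µM final; read 2 min post-addition, ex 337/em 390–490 nm; n=3. K1-NPN from 1-NPN titration/Scatchard; Ki from IC50 corrected for free 1-NPN.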

SfurOBP1 = SfurOBP1 (Sogatella furcifera, UniProt V5T8N5); experiment: biochemical; format: binding; settings: for Fluorescence competitive binding assay, fluorescence intensity: OBP1, three replicate columns
SfurOBP1, sequence (V5T8N5 entry or part of it): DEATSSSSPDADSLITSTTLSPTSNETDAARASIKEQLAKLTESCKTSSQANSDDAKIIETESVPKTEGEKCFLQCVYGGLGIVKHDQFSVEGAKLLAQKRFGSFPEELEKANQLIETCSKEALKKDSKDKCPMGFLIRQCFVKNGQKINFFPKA
In short: as §1

SfurOBP3 = SfurOBP3 (Sogatella furcifera, UniProt V5T818); experiment: biochemical; format: binding; settings: for Fluorescence competitive binding assay, fluorescence intensity: OBP3, three replicate columns
SfurOBP3, sequence (V5T818 entry or part of it): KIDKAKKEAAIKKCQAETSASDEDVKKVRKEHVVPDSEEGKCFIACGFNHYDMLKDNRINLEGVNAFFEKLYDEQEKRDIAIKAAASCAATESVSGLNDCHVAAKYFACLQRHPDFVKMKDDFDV
In short: as §1

SfurOBP11 = SfurOBP11 (Sogatella furcifera, UniProt V5T6E3); experiment: biochemical; format: binding
SfurOBP11, sequence (V5T6E3 entry or part of it): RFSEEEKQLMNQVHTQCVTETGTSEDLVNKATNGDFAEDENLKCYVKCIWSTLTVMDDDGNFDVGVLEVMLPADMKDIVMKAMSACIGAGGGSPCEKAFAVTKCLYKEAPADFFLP
In short: as §1

S. furcifera adults = experiment: Y-tube olfactometer behavioral trials; format: in vivo, Sogatella furcifera; settings: odorant 50 µL/L vs hexane; adults
In short: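 Single S. furcifera adults (2 days post-emergence, starved 0.5 h) chose between odorant (100 µL of 50 µL/L on filter paper) and hexane control in a glass Y-tube, charcoal-filtered humidified air 300 mL/min per arm, 25 ± 1 °C, 50% RH. Choice scored if insect passed half an arm and stayed >1 min within 10 min; 45 insects per compound, chi-squared test.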

SfurOBP2, sequence (V5T759 entry or part of it): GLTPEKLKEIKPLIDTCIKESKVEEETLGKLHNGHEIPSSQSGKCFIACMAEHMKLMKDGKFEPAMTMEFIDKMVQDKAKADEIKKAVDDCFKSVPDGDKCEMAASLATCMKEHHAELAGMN

## CCCCCCCCCCCCCCCCCCC [n-nonadecane]
SfurOBP2; SfurOBP2, protein and 1-NPN both 2.0 µM, competitor 2-20 µM, read-out: IC50
  IC50: > 20 µM
SfurOBP2; ligand concentration 2 (unit not given), replicate column 1 of 3
  Fluorescence competitive binding assay, OBP2 (raw fluorescence reading): 22779
SfurOBP2; ligand concentration 2 (unit not given), replicate column 2 of 3
  Fluorescence competitive binding assay, OBP2 (raw fluorescence reading): 20086
SfurOBP2; ligand concentration 2 (unit not given), replicate column 3 of 3
  Fluorescence competitive binding assay, OBP2 (raw fluorescence reading): 21018
SfurOBP2; ligand concentration 4 (unit not given), replicate column 1 of 3
  Fluorescence competitive binding assay, OBP2 (raw fluorescence reading): 21686
SfurOBP2; ligand concentration 4 (unit not given), replicate column 2 of 3
  Fluorescence competitive binding assay, OBP2 (raw fluorescence reading): 22088
SfurOBP2; ligand concentration 4 (unit not given), replicate column 3 of 3
  Fluorescence competitive binding assay, OBP2 (raw fluorescence reading): 20918
SfurOBP2; ligand concentration 6 (unit not given), replicate column 1 of 3
  Fluorescence competitive binding assay, OBP2 (raw fluorescence reading): 24120
SfurOBP2; ligand concentration 6 (unit not given), replicate column 2 of 3
  Fluorescence competitive binding assay, OBP2 (raw fluorescence reading): 23625
SfurOBP2; ligand concentration 6 (unit not given), replicate column 3 of 3
  Fluorescence competitive binding assay, OBP2 (raw fluorescence reading): 22791
SfurOBP2; ligand concentration 8 (unit not given), replicate column 1 of 3
  Fluorescence competitive binding assay, OBP2 (raw fluorescence reading): 22496
SfurOBP2; ligand concentration 8 (unit not given), replicate column 2 of 3
  Fluorescence competitive binding assay, OBP2 (raw fluorescence reading): 24832
SfurOBP2; ligand concentration 8 (unit not given), replicate column 3 of 3
  Fluorescence competitive binding assay, OBP2 (raw fluorescence reading): 23266
SfurOBP2; ligand concentration 10 (unit not given), replicate column 1 of 3
  Fluorescence competitive binding assay, OBP2 (raw fluorescence reading): 22518
SfurOBP2; ligand concentration 10 (unit not given), replicate column 2 of 3
  Fluorescence competitive binding assay, OBP2 (raw fluorescence reading): 23515
SfurOBP2; ligand concentration 10 (unit not given), replicate column 3 of 3
  Fluorescence competitive binding assay, OBP2 (raw fluorescence reading): 22157
SfurOBP2; ligand concentration 12 (unit not given), replicate column 1 of 3
  Fluorescence competitive binding assay, OBP2 (raw fluorescence reading): 23732
SfurOBP2; ligand concentration 12 (unit not given), replicate column 2 of 3
  Fluorescence competitive binding assay, OBP2 (raw fluorescence reading): 24191
SfurOBP2; ligand concentration 12 (unit not given), replicate column 3 of 3
  Fluorescence competitive binding assay, OBP2 (raw fluorescence reading): 22198
SfurOBP2; ligand concentration 14 (unit not given), replicate column 1 of 3
  Fluorescence competitive binding assay, OBP2 (raw fluorescence reading): 22713
SfurOBP2; ligand concentration 14 (unit not given), replicate column 2 of 3
  Fluorescence competitive binding assay, OBP2 (raw fluorescence reading): 20356
SfurOBP2; ligand concentration 14 (unit not given), replicate column 3 of 3
  Fluorescence competitive binding assay, OBP2 (raw fluorescence reading): 21973
SfurOBP2; ligand concentration 16 (unit not given), replicate column 1 of 3
  Fluorescence competitive binding assay, OBP2 (raw fluorescence reading): 21871
SfurOBP2; ligand concentration 16 (unit not given), replicate column 2 of 3
  Fluorescence competitive binding assay, OBP2 (raw fluorescence reading): 23043
SfurOBP2; ligand concentration 16 (unit not given), replicate column 3 of 3
  Fluorescence competitive binding assay, OBP2 (raw fluorescence reading): 23038
SfurOBP2; ligand concentration 18 (unit not given), replicate column 1 of 3
  Fluorescence competitive binding assay, OBP2 (raw fluorescence reading): 25864
SfurOBP2; ligand concentration 18 (unit not given), replicate column 2 of 3
  Fluorescence competitive binding assay, OBP2 (raw fluorescence reading): 26767
SfurOBP2; ligand concentration 18 (unit not given), replicate column 3 of 3
  Fluorescence competitive binding assay, OBP2 (raw fluorescence reading): 25338
SfurOBP2; ligand concentration 20 (unit not given), replicate column 1 of 3
  Fluorescence competitive binding assay, OBP2 (raw fluorescence reading): 26712
SfurOBP2; ligand concentration 20 (unit not given), replicate column 2 of 3
  Fluorescence competitive binding assay, OBP2 (raw fluorescence reading): 23676
SfurOBP2; ligand concentration 20 (unit not given), replicate column 3 of 3
  Fluorescence competitive binding assay, OBP2 (raw fluorescence reading): 24323
SfurOBP1; ligand concentration 2 (μM)
  Fluorescence competitive binding assay, fluorescence intensity: 5361 and 5140 and 5582
SfurOBP1; ligand concentration 4 (μM)
  Fluorescence competitive binding assay, fluorescence intensity: 6690 and 6608 and 6742
SfurOBP1; ligand concentration 6 (μM)
  Fluorescence competitive binding assay, fluorescence intensity: 8870 and 9897 and 7869
SfurOBP1; ligand concentration 8 (μM)
  Fluorescence competitive binding assay, fluorescence intensity: 7482 and 6593 and 11079
SfurOBP1; ligand concentration 10 (μM)
  Fluorescence competitive binding assay, fluorescence intensity: 7327 and 7941 and 8862
SfurOBP1; ligand concentration 12 (μM)
  Fluorescence competitive binding assay, fluorescence intensity: 8260 and 9027 and 8555
SfurOBP1; ligand concentration 14 (μM)
  Fluorescence competitive binding assay, fluorescence intensity: 9439 and 7708 and 9780
SfurOBP1; ligand concentration 16 (μM)
  Fluorescence competitive binding assay, fluorescence intensity: 8450 and 9204 and 7552
SfurOBP1; ligand concentration 18 (μM)
  Fluorescence competitive binding assay, fluorescence intensity: 9810 and 13450 and 9951
SfurOBP1; ligand concentration 20 (μM)
  Fluorescence competitive binding assay, fluorescence intensity: 10406 and 10007 and 8824
SfurOBP1; SfurOBP1, protein and 1-NPN both 2.0 µM, competitor 2-20 µM, read-out: IC50
  IC50: > 20 µM
SfurOBP3; ligand concentration 2
  Fluorescence competitive binding assay, fluorescence intensity: 81706 and 89895 and 90926
SfurOBP3; ligand concentration 4
  Fluorescence competitive binding assay, fluorescence intensity: 92466 and 96932 and 93745
SfurOBP3; ligand concentration 6
  Fluorescence competitive binding assay, fluorescence intensity: 84153 and 91141 and 92184
SfurOBP3; ligand concentration 8
  Fluorescence competitive binding assay, fluorescence intensity: 88550 and 83959 and 85903
SfurOBP3; ligand concentration 10
  Fluorescence competitive binding assay, fluorescence intensity: 84955 and 81246 and 84347
SfurOBP3; ligand concentration 12
  Fluorescence competitive binding assay, fluorescence intensity: 79099 and 81968 and 85076
SfurOBP3; ligand concentration 14
  Fluorescence competitive binding assay, fluorescence intensity: 78930 and 78937 and 80614
SfurOBP3; ligand concentration 16
  Fluorescence competitive binding assay, fluorescence intensity: 67688 and 71739 and 72376
SfurOBP3; ligand concentration 18
  Fluorescence competitive binding assay, fluorescence intensity: 93819 and 87996 and 91999
SfurOBP3; ligand concentration 20
  Fluorescence competitive binding assay, fluorescence intensity: 87679 and 80588 and 71651
SfurOBP3; SfurOBP3, protein and 1-NPN both 2.0 µM, competitor 2-20 µM, read-out: IC50
  IC50: > 20 µM
SfurOBP11; SfurOBP11, protein and 1-NPN both 2.0 µM, competitor 2-20 µM, read-out: IC50
  IC50: > 20 µM
SfurOBP11; ligand concentration 2, replicate 1
  Fluorescence intensity, fluorescence competitive binding assay, OBP11: 39005
SfurOBP11; ligand concentration 2, replicate 2
  Fluorescence intensity, fluorescence competitive binding assay, OBP11: 36085
SfurOBP11; ligand concentration 2, replicate 3
  Fluorescence intensity, fluorescence competitive binding assay, OBP11: 36144
SfurOBP11; ligand concentration 4, replicate 1
  Fluorescence intensity, fluorescence competitive binding assay, OBP11: 38725
SfurOBP11; ligand concentration 4, replicate 2
  Fluorescence intensity, fluorescence competitive binding assay, OBP11: 39209
SfurOBP11; ligand concentration 4, replicate 3
  Fluorescence intensity, fluorescence competitive binding assay, OBP11: 36494
SfurOBP11; ligand concentration 6, replicate 1
  Fluorescence intensity, fluorescence competitive binding assay, OBP11: 38941
SfurOBP11; ligand concentration 6, replicate 2
  Fluorescence intensity, fluorescence competitive binding assay, OBP11: 37869
SfurOBP11; ligand concentration 6, replicate 3
  Fluorescence intensity, fluorescence competitive binding assay, OBP11: 35504
SfurOBP11; ligand concentration 8, replicate 1
  Fluorescence intensity, fluorescence competitive binding assay, OBP11: 38326
SfurOBP11; ligand concentration 8, replicate 2
  Fluorescence intensity, fluorescence competitive binding assay, OBP11: 38320
SfurOBP11; ligand concentration 8, replicate 3
  Fluorescence intensity, fluorescence competitive binding assay, OBP11: 34260
SfurOBP11; ligand concentration 10, replicate 1
  Fluorescence intensity, fluorescence competitive binding assay, OBP11: 39470
SfurOBP11; ligand concentration 10, replicate 2
  Fluorescence intensity, fluorescence competitive binding assay, OBP11: 35190
SfurOBP11; ligand concentration 10, replicate 3
  Fluorescence intensity, fluorescence competitive binding assay, OBP11: 34723
SfurOBP11; ligand concentration 12, replicate 1
  Fluorescence intensity, fluorescence competitive binding assay, OBP11: 35740
SfurOBP11; ligand concentration 12, replicate 2
  Fluorescence intensity, fluorescence competitive binding assay, OBP11: 35339
SfurOBP11; ligand concentration 12, replicate 3
  Fluorescence intensity, fluorescence competitive binding assay, OBP11: 34546
SfurOBP11; ligand concentration 14, replicate 1
  Fluorescence intensity, fluorescence competitive binding assay, OBP11: 33030
SfurOBP11; ligand concentration 14, replicate 2
  Fluorescence intensity, fluorescence competitive binding assay, OBP11: 32494
SfurOBP11; ligand concentration 14, replicate 3
  Fluorescence intensity, fluorescence competitive binding assay, OBP11: 31487
SfurOBP11; ligand concentration 16, replicate 1
  Fluorescence intensity, fluorescence competitive binding assay, OBP11: 29383
SfurOBP11; ligand concentration 16, replicate 2
  Fluorescence intensity, fluorescence competitive binding assay, OBP11: 30154
SfurOBP11; ligand concentration 16, replicate 3
  Fluorescence intensity, fluorescence competitive binding assay, OBP11: 29504
SfurOBP11; ligand concentration 18, replicate 1
  Fluorescence intensity, fluorescence competitive binding assay, OBP11: 32894
SfurOBP11; ligand concentration 18, replicate 2
  Fluorescence intensity, fluorescence competitive binding assay, OBP11: 34140
SfurOBP11; ligand concentration 18, replicate 3
  Fluorescence intensity, fluorescence competitive binding assay, OBP11: 29208
SfurOBP11; ligand concentration 20, replicate 1
  Fluorescence intensity, fluorescence competitive binding assay, OBP11: 31537
SfurOBP11; ligand concentration 20, replicate 2
  Fluorescence intensity, fluorescence competitive binding assay, OBP11: 29929
SfurOBP11; ligand concentration 20, replicate 3
  Fluorescence intensity, fluorescence competitive binding assay, OBP11: 28655
S. furcifera adults
  number of insects choosing hexane arm: 13
  number of insects choosing volatilies arm: 15
  number of insects failed (no choice): 12
